# Experimental data published in US20230364130A1, “INHALED ARGON FOR TREATING A PATIENT SUFFERING FROM CARDIOVASCULAR DISEASE” (L'Air Liquide, Sociëtë Anonyme Pour l'Etude et …, priority 2020, published 2023).
# What was measured:
# rabbits [1] = assay: model of multiple organ failure by clamping the supraceliac aorta (30 min) then reperfusion; hemodynamics and acid-base parameters; format: in vivo, rabbit (male, New Zealand breed)
# Procedure: (§1) More specifically, the model used is a lagomorphic model of multiple organ failure by clamping the supraceliac aorta.
# The rabbits were sedated by intravenous injection (Zoletil® 15 mg/kg), then intubated to be ventilated. Anesthesia is completed by intravenous administration of thiopental (10 mg/kg) and methadone hydrochloride (Comfortan® 0.6 mg/kg); and maintained as needed with thiopental boluses.
# (§2) After a period of hemodynamic stabilization, the supraceliac aorta is clamped with an atraumatic clamp for 30 minutes. In order to avoid any thrombus formation at the level of the clamping, a bolus of unfractionated heparin (250 IU/kg) is administered to the rabbit in question, 5 minutes before clamping.
# The effectiveness of the clamping is verified by the absence of an aortic pulse downstream of the clamping. Similarly, the absence of thrombus is assessed by the presence of an aortic pulse after unclamping.
# (§3) The rabbits are separated into 2 groups: • a Control Group (CG) inhaling an N2/O2 binary gas mixture containing 30% of oxygen and the rest as nitrogen (vol %); • an Argon Group (AG) according to the invention inhaling an Ar/O2 binary gas mixture containing 30% of oxygen and the rest as argon (vol %), i.e. 70 vol % of argon.
# The cardiac output is measured by a cardiac output valve before, during and after ischemia (Isch.) of the aorta.
# rabbits [2] = assay: histology score of organs after supraceliac aortic clamping and reperfusion; format: in vivo, rabbit (male, New Zealand breed)
# Procedure: as §1, §2, §3
# FIG. 3 represents the histology score of several organs: heart, liver, lungs, kidneys and jejunum (i.e. intestines).
# rabbits [3] = assay: additional preliminary study: suprarenal then supraceliac aortic clamping, calculated pulmonary vascular resistance; format: in vivo, rabbit; details: argon 70 vol % / oxygen 30 vol %, during suprarenal then supraceliac aortic clamping
# Procedure: A first clamping of the aorta of these rabbits was performed above the renal artery, followed by clamping at the supraceliac level. The objective is to see the effect of argon during a gradual modification of systemic resistance.
# [4] = after 300 minutes of reperfusion
smiles,measurement,setting,value
[Ar] [argon],"pH, HCO3- and lactate parameters vs Control Group",rabbits [1]; acid-base biochemical parameters,significantly preserved within normal values
same,norepinephrine dose required to maintain a stable arterial pressure,rabbits [1]; after 15 minutes of reperfusion,1.4 ± 0.6 µg/kg/min
same,cardiac output,"rabbits [1]; after 30 minutes of gas inhalation, before clamping",99 ± 10 mL/min/kg
same,cardiac output,rabbits [1]; [4],60 ± 4 mL/min/kg
same,pH,rabbits [1]; [4],7.16
same,cardiac output vs Control Group,"rabbits [1]; after unclamping, up to 240 minutes of reperfusion",no significant difference between the groups
same,norepinephrine dose required to maintain a stable arterial pressure,rabbits [1]; at the end of the 300-minute monitoring,3.3 ± 1.6 µg/kg/min
same,cardiac output,"rabbits [1]; at the start of the experiment, inhaled Ar/O2 70/30 vol %",108 ± 7 mL/min/kg
same,mean arterial pressure,rabbits [1]; during the ischemia phase following clamping,130±7 mmHg
same,mean arterial pressure vs Control Group,"rabbits [1]; during the reperfusion phase, after unclamping",no significant difference between the groups
same,attenuated decrease of cardiac output vs Control Group,"rabbits [1]; immediately after beginning of surgery, upon clamping",approximately 20%
same,norepinephrine doses to maintain mean arterial pressure vs Control Group,rabbits [1]; throughout reperfusion,significantly lower
same,heart rate vs Control Group,rabbits [1]; throughout the protocol,no significant difference between the groups
same,jejunal lesions vs Control Group,"rabbits [2]; jejunum, histology",no difference
same,tubular necrosis lesions vs Control Group,"rabbits [2]; kidneys, histology",significantly greater in the Control Group than in the Argon Group
same,"histology score, centrilobular clarification vs Control Group",rabbits [2]; liver,significantly lower
same,congestive and edematous lesions of the lung parenchyma vs Control Group,"rabbits [2]; lungs, histology",the difference was not significant
same,subendocardial necrosis lesions vs Control Group,"rabbits [2]; myocardium, histology",no significant difference
same,pulmonary vascular resistance vs animals exposed to oxygen-enriched air,rabbits [3],immediately reduced
